What was measured:
“DKT”-IMPDH-II = target: T1, “DKT”-IMPDH-II (Homo sapiens, UniProt P12268, DEL111-240/K241D/Q243T); test: Steady state enzyme kinetics: inhibition of IMPDH-DKT by XMP and MPA; type: biochemical; details: for Inhibition type: steady state kinetics
T1 construct: The full-length, human, type II impdh cDNAs were used as templates; made in house; host or cells: E. coli BL21(DE3), pET24a

[1] = tested on: conversion of NAD to NADH in the presence of IMP; test: Functional activity of modified IMPDH multimers: conversion of NAD to NADH measured spectrophotometrically at 340 nm; type: biochemical, human; details: partially purified protein, 0.40 mM IMP, 0.40 mM NAD, 37° C.
Method: Polypeptides of the modified IMPDH-DKT, -SPS, -SPT, and -AGRP were isolated and partially purified using a blue dye affinity chromatographic step. All steps were performed at 4° C. unless otherwise noted. The frozen cell pellets (e.g., described in Example 1) were thawed on ice, and resuspended in 10 mL of Buffer A (25 mM Tris, pH 8.2, 20 mM KCl, 10% glycerol (v/v), 1 mM EDTA, 5 mM DTT, and 1 μg/mL leupeptin). The cells were lysed by 2×20 second sonication pulses using a ¼″ Microtip on a Branson model 450 sonifier (set on 2.5 power setting), and excessive foaming was carefully avoided. […] The samples were evaluated for the presence of the modified IMPDH polypeptides and to approximate the purity using standard SDS-PAGE methods, with Coomassie blue staining. For each of the modified IMPDH polypeptides, it was determined that the purity of the Buffer C fractions contained approximately 75% modified IMPDH polypeptide. The total protein content was quantitated using the Bradford assay method (Bradford, M. M., 1976, Anal. Biochem., 72: 248), with Biorad protein reagent (product #500-0006) and using BSA as a protein standard.
To evaluate the functional activity of the modified IMPDH polypeptides, the conversion of NAD to NADH was measured spectrophotometrically at 340 nm, 37° C. […] The production of NADH was determined by δOD^340 (ε=6220 M^−1 cm^−1), measured for 5 min. […]

T1 sequence (P12268 with tags, fused parts or gaps DEL111-240/K241D/Q243T): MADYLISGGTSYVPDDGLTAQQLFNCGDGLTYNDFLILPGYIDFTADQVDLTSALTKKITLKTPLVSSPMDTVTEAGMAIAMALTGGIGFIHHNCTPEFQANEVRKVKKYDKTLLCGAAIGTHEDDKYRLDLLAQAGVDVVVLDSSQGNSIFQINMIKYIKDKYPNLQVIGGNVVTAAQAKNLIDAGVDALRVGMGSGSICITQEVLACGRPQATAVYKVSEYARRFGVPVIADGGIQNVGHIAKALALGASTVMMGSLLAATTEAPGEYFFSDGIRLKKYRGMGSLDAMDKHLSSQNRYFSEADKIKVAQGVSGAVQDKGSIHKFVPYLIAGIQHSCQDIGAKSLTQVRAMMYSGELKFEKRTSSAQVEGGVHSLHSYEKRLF

Molecule | Inhibition type (“DKT”-IMPDH-II) | Ki (“DKT”-IMPDH-II; buffer D, 50 nM protein) | NADH produced [1]
COc1c(C)c2c(c(O)c1C/C=C(\C)CCC(=O)O)C(=O)OC2 [MPA, Mycophenolic acid] | Uncompetitive vs. IMP | – | –
O=c1[nH]c(=O)c2ncn([C@@H]3O[C@H](COP(=O)(O)O)[C@@H](O)[C@H]3O)c2[nH]1 [XMP, xanthosine-5′-monophosphate] | Competitive vs. IMP | 67 ± 5 µM | –
wild-type IMPDH holoenzyme: wild-type human type II IMPDH holo-enzyme, SEQ ID NO:49 [reference compound] | – | – | approximately 1.00 μmoles/min mg protein

— patent US20020068346A1, “Modified inosine 5'-monophosphate dehydrogenase polypeptides and uses thereof” (priority 2000, published 2002)
